Assay results published in patent US20130338130A1 (priority 2009, published 2013).
Several values for one entry are separate records, joined by “and”; a condition that tells them apart may be missing. Equal entries are not always repeated. Where two headings read alike, the source gives them in different places.

Legend:
[1] = system: ATCC strain 43300 Staphylococcus aureus; assay: MRSA survival in MSM and oxacillin, simulated course of treatment (Example 3); conditions: for survival (Log cfu/ml): 6 μg/ml oxacillin added daily + MSM (% in label)
Description: After 24 hours, another 6 μg/ml oxacillin was added to the incubations, bringing the total amount of oxacillin added to 12 μg/ml. […] This experimental paradigm simulates the repeated application of antibiotic that a subject would receive over a course of treatment.
USP<51> Antimicrobial Effectiveness protocol was used as the template experimental paradigm. […] All concentrations were plated out to the 10^−7 dilutions to ascertain cfu/ml. […] This concentration is the industry standard for determining MRSA resistance in clinical applications. An additional 6 μg/ml oxacillin was added daily.
Material was calculated on a 10 ml volume. Sterile oxacillin was added to each experimental condition daily at 300 μl from a 30 mg/10 ml concentration giving it a final concentration of 6 μg/ml.
All tubes were inoculated at a dilution of MRSA giving a final concentration of colony forming units of 9.14×10^5/ml (Log=5.96). The tubes were incubated at 25° C. and mixed periodically. Plating was done at 48 hours and 7 days. […] These were serial diluted down to 10^−7 with 1 ml placed in a sterile petri dish at each dilution point. 20 mls of TSA was added to each dilution and swirled and allowed to solidify. All dilutions were placed in a 35° C. incubator for 24 hours. Plates were counted and colony counts changed into log format. A positive and negative control was ascertained.

[2] = system: ATCC strain 43300 Staphylococcus aureus; conditions: for survival (cfu/ml): triplicate platings
Description: Additional antibiotic was added every 24 hours. The growth periods tested were 24 (FIG. 5), 48, 72, 96 and 120 hours.
USP<51> Antimicrobial Effectiveness protocol was used as the template experimental paradigm. […] All concentrations were plated out to the 10^−7 dilutions to ascertain cfu/ml. […] Additional antibiotic was added at the initial concentration every 24 hours.
ATCC strain 43300 Staphylococcus aureus was streaked out for isolations. An isolated colony was chosen, streaked again and incubated. Isolate was chosen and then diluted to a McFarland standard of one. The estimated value was then taken to inoculate tubes containing growth media and 12, 30 or 60 μg/ml methicillin with approximately 10^5 cfu/ml. These tubes were incubated and plated for counting cfu.
Material was calculated on a 10 ml volume. Sterile methicillin was added to each experimental condition to a final concentration of 12, 30 or 60 μg/ml antibiotic. Lactose Broth positive controls both with and without the 12 μg/ml, 30 μg/ml, 60 μg/ml antibiotic were inoculated with MRSA. […] Tubes were set up in singlet, but plated in triplicate, as described below.
All tubes were then inoculated with a dilution of the selected ATCC strain 43300 Staphylococcus aureus clone giving a final level of colony forming units of 1.49×10^5/ml (log=5.17). The tubes were incubated at 25° C. and mixed periodically. Antibiotic was re-inoculated every 24 hours at the initial concentration to maintain pressure on the organism. Plating was done at 24, 48, 72, and 120 hours. Each condition was plated by diluting 1 ml of growth material into 9 ml of MLB diluent broth. […] This mixture was serial diluted down to 10^−7 with 1 ml placed in triplicate in a sterile petri dish at each dilution point. 20 mls of TSA was added to each dilution, swirled and allowed to solidify. All dilutions were placed in a 35° C. incubator for 24 to 72 hours. Bacterial colonies on each plate were counted and the average taken then changed into log format. […] Graphs were recorded as log of 5.2 for TNTC to show comparison among the other data points.
The tubes were spun down at 5000 rpm for 10 minutes. The supernatant was then decanted into 90 mls of Mueller-Hinton broth with 6 μg/ml methicillin. This is for enrichment and the recovery of any MRSA cells that may be present wether healthy or stressed. The pellet had 10 mls Mueller-Hinton broth with 6 μg/ml methicillin added to it to recover any cells that may be present. Both vessels were incubated at 35° C. for 48 hours and plated each 24 hours. Each vessel was plated at 10 dilutions to obtain a 1 cfu detection limit. Since all vessels were at a 1/10 dilution in the enrichment solution plating each vessel in this manner gave us a detection limit of 1 cfu/ml. […] This time point for graphing purposes will be reported as 0 logs.

CS(C)(=O)=O [MSM, Methylsulfonylmethane]
survival (Log cfu/ml) ([1]; 48 hours, inoculum Log=5.96, listed as 15% MSM): 4.1 Log cfu/ml
survival (Log cfu/ml) ([1]; 48 hours, inoculum Log=5.96, listed as 16% MSM): 5.3 Log cfu/ml
survival (Log cfu/ml) ([1]; 7 days, listed as 5% MSM): 7.9 Log cfu/ml
survival (Log cfu/ml) ([1]; 7 days, listed as 8% MSM): 7.6 Log cfu/ml
survival (Log cfu/ml) ([1]; 7 days, listed as 10% MSM): 7.2 Log cfu/ml
survival (Log cfu/ml) ([1]; 7 days, listed as 12% MSM): 7.1 Log cfu/ml
survival (Log cfu/ml) ([1]; 7 days, listed as 13% MSM): 7.2 Log cfu/ml
survival (Log cfu/ml) ([1]; 7 days, listed as 14% MSM): 7.0 Log cfu/ml
survival (Log cfu/ml) ([1]; 7 days, listed as 15% MSM): 6.9 Log cfu/ml
survival (Log cfu/ml) ([1]; 7 days, listed as 16% MSM): 1.0 Log cfu/ml
surviving bacteria ([1]; 6 μg/ml oxacillin added each day, day 7): no surviving bacteria
survival (cfu/ml) ([2]; 12 μg/ml methicillin (re-added every 24 hours) + MSM (% in label), 24 hours, inoculum 1.49×10^5/ml, listed as 5% MSM): 7.8 × 10^2 cfu/ml and 8.0 × 10^2 cfu/ml and 8.2 × 10^2 cfu/ml
survival (cfu/ml) ([2]; 12 μg/ml methicillin (re-added every 24 hours) + MSM (% in label), 24 hours, inoculum 1.49×10^5/ml, listed as 6% MSM): 4.0 × 10^2 cfu/ml and 4.4 × 10^2 cfu/ml and 4.5 × 10^2 cfu/ml
survival (cfu/ml) ([2]; 12 μg/ml methicillin (re-added every 24 hours) + MSM (% in label), 24 hours, inoculum 1.49×10^5/ml, listed as 7% MSM): 4.4 × 10^2 cfu/ml and 5.0 × 10^2 cfu/ml
survival (cfu/ml) ([2]; 12 μg/ml methicillin (re-added every 24 hours) + MSM (% in label), 24 hours, inoculum 1.49×10^5/ml, listed as 8% MSM): 9.6 × 10^2 cfu/ml and 9.5 × 10^2 cfu/ml and 9.3 × 10^2 cfu/ml
survival (cfu/ml) ([2]; 12 μg/ml methicillin (re-added every 24 hours) + MSM (% in label), 24 hours, inoculum 1.49×10^5/ml, listed as 9% MSM): 9.0 × 10^2 cfu/ml and 9.4 × 10^2 cfu/ml and 9.2 × 10^2 cfu/ml
survival (cfu/ml) ([2]; 12 μg/ml methicillin (re-added every 24 hours) + MSM (% in label), 24 hours, inoculum 1.49×10^5/ml, listed as 10% MSM): 1.4 × 10^3 cfu/ml
survival (cfu/ml) ([2]; 12 μg/ml methicillin (re-added every 24 hours) + MSM (% in label), 24 hours, inoculum 1.49×10^5/ml, listed as 11% MSM): 2.2 × 10^3 cfu/ml and 2.3 × 10^3 cfu/ml
survival (cfu/ml) ([2]; 12 μg/ml methicillin (re-added every 24 hours) + MSM (% in label), 24 hours, inoculum 1.49×10^5/ml, listed as 12% MSM): 2.9 × 10^3 cfu/ml and 3.0 × 10^3 cfu/ml and 2.8 × 10^3 cfu/ml
survival (cfu/ml) ([2]; 12 μg/ml methicillin (re-added every 24 hours) + MSM (% in label), 24 hours, inoculum 1.49×10^5/ml, listed as 13% MSM): 3.3 × 10^3 cfu/ml and 3.5 × 10^3 cfu/ml and 3.4 × 10^3 cfu/ml
survival (cfu/ml) ([2]; 12 μg/ml methicillin (re-added every 24 hours) + MSM (% in label), 24 hours, inoculum 1.49×10^5/ml, listed as 14% MSM): 8.8 × 10^3 cfu/ml and 8.5 × 10^3 cfu/ml and 8.2 × 10^3 cfu/ml
survival (cfu/ml) ([2]; 12 μg/ml methicillin (re-added every 24 hours) + MSM (% in label), 24 hours, inoculum 1.49×10^5/ml, listed as 15% MSM): 6.4 × 10^3 cfu/ml and 6.6 × 10^3 cfu/ml and 6.5 × 10^3 cfu/ml
survival (cfu/ml) ([2]; 12 μg/ml methicillin (re-added every 24 hours) + MSM (% in label), 24 hours, inoculum 1.49×10^5/ml, listed as 16% MSM): 1.01 × 10^3 cfu/ml and 1.03 × 10^3 cfu/ml and 1.04 × 10^3 cfu/ml
log reduction ([2]; 12 μg/ml methicillin, 24 hours): 2.2 log
log reduction in colony count ([2]; 12 μg/ml methicillin, 48 hours): 4.1 log
recovery after enrichment in Mueller-Hinton broth ([2]; 12 μg/ml methicillin, 72 hours, detection limit 1 cfu/ml): true total kill
colony count ([2]; 12 μg/ml methicillin, 96 hours): TNTC
recovery after enrichment in Mueller-Hinton broth ([2]; 12 μg/ml methicillin, 96 hours, detection limit 1 cfu/ml): true total kill
colony count ([2]; 12 μg/ml methicillin, 120 hours): TNTC
average log reduction in colony count ([2]; 12 μg/ml methicillin, all MSM concentrations, 24 hours): 1.5 logs
survival (cfu/ml) ([2]; 30 μg/ml methicillin + MSM (% in label), 24 hours, listed as 5% MSM): 3.8 × 10^2 cfu/ml and 4.1 × 10^2 cfu/ml and 4.0 × 10^2 cfu/ml
survival (cfu/ml) ([2]; 30 μg/ml methicillin + MSM (% in label), 24 hours, listed as 6% MSM): 2.2 × 10^2 cfu/ml and 2.5 × 10^2 cfu/ml
survival (cfu/ml) ([2]; 30 μg/ml methicillin + MSM (% in label), 24 hours, listed as 7% MSM): 3.4 × 10^2 cfu/ml and 3.5 × 10^2 cfu/ml and 3.3 × 10^2 cfu/ml
survival (cfu/ml) ([2]; 30 μg/ml methicillin + MSM (% in label), 24 hours, listed as 8% MSM): 9.4 × 10^2 cfu/ml and 9.6 × 10^2 cfu/ml
survival (cfu/ml) ([2]; 30 μg/ml methicillin + MSM (% in label), 24 hours, listed as 9% MSM): 1.1 × 10^3 cfu/ml and 1.3 × 10^3 cfu/ml and 1.2 × 10^3 cfu/ml
survival (cfu/ml) ([2]; 30 μg/ml methicillin + MSM (% in label), 24 hours, listed as 10% MSM): 1.2 × 10^3 cfu/ml and 1.3 × 10^3 cfu/ml and 1.1 × 10^3 cfu/ml
survival (cfu/ml) ([2]; 30 μg/ml methicillin + MSM (% in label), 24 hours, listed as 11% MSM): 3.3 × 10^3 cfu/ml and 2.8 × 10^3 cfu/ml and 3.1 × 10^3 cfu/ml
survival (cfu/ml) ([2]; 30 μg/ml methicillin + MSM (% in label), 24 hours, listed as 12% MSM): 3.3 × 10^3 cfu/ml
survival (cfu/ml) ([2]; 30 μg/ml methicillin + MSM (% in label), 24 hours, listed as 13% MSM): 6.5 × 10^3 cfu/ml and 6.4 × 10^3 cfu/ml
survival (cfu/ml) ([2]; 30 μg/ml methicillin + MSM (% in label), 24 hours, listed as 14% MSM): 6.3 × 10^3 cfu/ml and 6.7 × 10^3 cfu/ml and 6.9 × 10^3 cfu/ml
survival (cfu/ml) ([2]; 30 μg/ml methicillin + MSM (% in label), 24 hours, listed as 15% MSM): 7.8 × 10^3 cfu/ml and 7.6 × 10^3 cfu/ml and 8.0 × 10^3 cfu/ml
survival (cfu/ml) ([2]; 30 μg/ml methicillin + MSM (% in label), 24 hours, listed as 16% MSM): 9.6 × 10^3 cfu/ml and 9.8 × 10^3 cfu/ml and 9.7 × 10^3 cfu/ml
log reduction in colony count ([2]; 30 μg/ml methicillin, 24 hours): 2.8 log
recovery after enrichment in Mueller-Hinton broth ([2]; 30 μg/ml methicillin, 120 hours, detection limit 1 cfu): true total kill
average log reduction ([2]; 30 μg/ml methicillin, lower end of MSM concentrations, 24 hours): 3 log
survival (cfu/ml) ([2]; 60 μg/ml methicillin + MSM (% in label), 24 hours, listed as 5% MSM): 8.3 × 10^2 cfu/ml and 8.1 × 10^2 cfu/ml
survival (cfu/ml) ([2]; 60 μg/ml methicillin + MSM (% in label), 24 hours, listed as 6% MSM): 4.2 × 10^2 cfu/ml and 4.8 × 10^2 cfu/ml
survival (cfu/ml) ([2]; 60 μg/ml methicillin + MSM (% in label), 24 hours, listed as 7% MSM): 6.1 × 10^2 cfu/ml and 6.3 × 10^2 cfu/ml and 6.2 × 10^2 cfu/ml
survival (cfu/ml) ([2]; 60 μg/ml methicillin + MSM (% in label), 24 hours, listed as 8% MSM): 9.4 × 10^2 cfu/ml and 9.8 × 10^2 cfu/ml and 9.7 × 10^2 cfu/ml
survival (cfu/ml) ([2]; 60 μg/ml methicillin + MSM (% in label), 24 hours, listed as 9% MSM): 2.0 × 10^3 cfu/ml and 1.6 × 10^3 cfu/ml and 1.8 × 10^3 cfu/ml
survival (cfu/ml) ([2]; 60 μg/ml methicillin + MSM (% in label), 24 hours, listed as 10% MSM): 2.2 × 10^3 cfu/ml and 2.1 × 10^3 cfu/ml and 2.0 × 10^3 cfu/ml
survival (cfu/ml) ([2]; 60 μg/ml methicillin + MSM (% in label), 24 hours, listed as 11% MSM): 3.5 × 10^3 cfu/ml and 3.8 × 10^3 cfu/ml and 3.9 × 10^3 cfu/ml
survival (cfu/ml) ([2]; 60 μg/ml methicillin + MSM (% in label), 24 hours, listed as 12% MSM): 4.5 × 10^3 cfu/ml and 4.1 × 10^3 cfu/ml and 4.7 × 10^3 cfu/ml
survival (cfu/ml) ([2]; 60 μg/ml methicillin + MSM (% in label), 24 hours, listed as 13% MSM): 7.0 × 10^3 cfu/ml and 6.8 × 10^3 cfu/ml and 6.5 × 10^3 cfu/ml
survival (cfu/ml) ([2]; 60 μg/ml methicillin + MSM (% in label), 24 hours, listed as 14% MSM): 8.3 × 10^3 cfu/ml and 8.8 × 10^3 cfu/ml and 8.5 × 10^3 cfu/ml
survival (cfu/ml) ([2]; 60 μg/ml methicillin + MSM (% in label), 24 hours, listed as 15% MSM): 8.3 × 10^3 cfu/ml and 8.5 × 10^3 cfu/ml and 8.4 × 10^3 cfu/ml
survival (cfu/ml) ([2]; 60 μg/ml methicillin + MSM (% in label), 24 hours, listed as 16% MSM): 8.4 × 10^3 cfu/ml and 8.5 × 10^3 cfu/ml
log reduction in colony count ([2]; 60 μg/ml methicillin, 48 hours): 4.1 log
recovery after enrichment in Mueller-Hinton broth ([2]; 60 μg/ml methicillin, 72 hours, detection limit 1 cfu/ml): true total kill
colony count ([2]; 60 μg/ml methicillin, 96 hours): TNTC
recovery after enrichment in Mueller-Hinton broth ([2]; 60 μg/ml methicillin, 120 hours, detection limit 1 cfu): true total kill
growth ([2]; positive 5%, 10%, and 16% MSM controls, no antibiotic, 24 hours): signs of turbid growth, was TNTC for all dilutions plated
